# Test system: HCMV infected cells
# Assay: CTL analysis of HPLC purified pp65-CNBr digest peptides
# Assay type: cell-based, human
# Details: identification method: by experiment
# Method: For chemical cleavage with CNBr, pp65 was dissolved in 60% formic acid and treated overnight under argon with a 100 fold molar excess of CNBr (over methionine residues). The solvent was evaporated at room temperature under a stream of argon, the residue resuspended in water and lyophilized. The peptides were fractionated by HPLC on a Vydac C4 reverse phase column, using a 90-minute linear gradient from 100% solvent A (0.1% TFA) to 100% solvent B (TFA/H2O/CH3CN, 0.1/9.9/90, v/v/v/). The HPLC purified peaks from map A were subjected to amino acid sequencing (performed by City of Hope) and from map B were used for CTL analysis (performed at the Fred Hutchinson Cancer Center).
# Figure 4 is a map produced by the HPLC analysis. The HPLC purified peptide peaks designated by asterisks in Figure 4 were sequenced. These peptides correspond to sequences 1 through 6 (Sequence ID Nos. 1-6), of this application. The invention includes the use of these six peptides or portions thereof to lyse HCMV infected cells, and as immunogens in HCMV vaccines and skin test formulations.
row,Substance,induction of CTLs that lyse HCMV infected cells
1,"SEQ ID NO:1: Fragment of pp65 protein expressed by HCMV (Towne), 98 amino acid residues, amino acid 12-109",Induces CTLs that lyse HCMV infected cells
2,"SEQ ID NO:6: C-terminal fragment of HCMV pp65 protein, 62 amino acid residues, amino acid 500-561",Induces CTLs that lyse HCMV infected cells
